{"source": "paper PMC4907692", "about": "“Engineering vanilloid-sensitivity into the rat TRPV2 channel” (eLife, 2016)", "key": {"WT TRPV1": {"biological_target": "T1, WT TRPV1 (Rattus norvegicus, UniProt O35433)", "T1 construct": "expressed in transfected cells; host or cells: Xenopus oocytes (cRNA injection, pGEM-HE)", "assay": "Two-electrode voltage-clamp in Xenopus oocytes, WT TRPV1", "format": "cell-based", "details": "100 nM RTx, +60 and -60 mV", "from_the_text": "(§1) To further investigate the putative vanilloid binding pocket in TRPV1, we inspected the cryo-EM structure of TRPV1, looking for residues that are located nearby to the putative RTx density (Figure 1B; regions/residues highlighted in yellow) and that differ between TRPV1 and TRPV2 channels (Figure 3—figure supplement 1; regions highlighted in magenta). […] To quantify the contribution of each of these residues to TRPV1 channel activation by RTx under our experimental conditions, we mutated each to the corresponding residue in TRPV2. We then expressed each construct in oocytes and used the two electrode voltage-clamp technique to study activation by RTx and by the non-specific TRPV channel activator 2-APB. We recorded time courses for channel activation by each agonist while stepping the membrane potential from −60 to +60 mV every 3 s from a holding potential of 0 mV using an external recording solution containing 100 mM KCl (internal K^+ concentration in a healthy oocyte is 100 mM) (Figure 3A, left). We also recorded current-voltage (I-V) relations by stepping over a wider range of voltages in the absence and presence of activators, or in the presence of ruthenium red (RR), a non-specific inhibitor of TRP channels (Figure 3A, right).\nThe WT rat TRPV1 and TRPV2 channels in the pcDNA3.1 vector were kindly provided by Dr. David Julius (UCSF) ([Caterina et al., 1997]; [Caterina et al., 1999]) and subcloned into the pGEM-HE vector ([Liman et al., 1992]). Mutations were introduced into rTRPV1 using a two-step PCR mutagenesis technique and the resulting constructs were verified by sequencing. All channel constructs were expressed in Xenopus oocytes and studied following 1–4 days incubation after cRNA injection (incubated at 17°C in 96 mM NaCl, 2 mM KCl, 5 mM HEPES, 1 mM MgCl2 and 1.8 mM CaCl2, 50 μg/ml gentamycin, pH 7.6 with NaOH) using the two-electrode voltage-clamp recording technique (OC-725C, Warner Instruments, Hamden, CT) with a 150 μl recording chamber. Data were filtered at 1–3 kHz and digitized at 20 kHz using pClamp software (Molecular Devices, Sunnyvale, CA). […]"}, "TRPV1 S512F/M547L": {"biological_target": "T2, TRPV1 S512F/M547L (Rattus norvegicus, UniProt O35433, M547L/S512F)", "T2 construct": "expressed in transfected cells; host or cells: Xenopus oocytes (cRNA injection)", "T2 sequence (O35433 whole entry S512F/M547L)": "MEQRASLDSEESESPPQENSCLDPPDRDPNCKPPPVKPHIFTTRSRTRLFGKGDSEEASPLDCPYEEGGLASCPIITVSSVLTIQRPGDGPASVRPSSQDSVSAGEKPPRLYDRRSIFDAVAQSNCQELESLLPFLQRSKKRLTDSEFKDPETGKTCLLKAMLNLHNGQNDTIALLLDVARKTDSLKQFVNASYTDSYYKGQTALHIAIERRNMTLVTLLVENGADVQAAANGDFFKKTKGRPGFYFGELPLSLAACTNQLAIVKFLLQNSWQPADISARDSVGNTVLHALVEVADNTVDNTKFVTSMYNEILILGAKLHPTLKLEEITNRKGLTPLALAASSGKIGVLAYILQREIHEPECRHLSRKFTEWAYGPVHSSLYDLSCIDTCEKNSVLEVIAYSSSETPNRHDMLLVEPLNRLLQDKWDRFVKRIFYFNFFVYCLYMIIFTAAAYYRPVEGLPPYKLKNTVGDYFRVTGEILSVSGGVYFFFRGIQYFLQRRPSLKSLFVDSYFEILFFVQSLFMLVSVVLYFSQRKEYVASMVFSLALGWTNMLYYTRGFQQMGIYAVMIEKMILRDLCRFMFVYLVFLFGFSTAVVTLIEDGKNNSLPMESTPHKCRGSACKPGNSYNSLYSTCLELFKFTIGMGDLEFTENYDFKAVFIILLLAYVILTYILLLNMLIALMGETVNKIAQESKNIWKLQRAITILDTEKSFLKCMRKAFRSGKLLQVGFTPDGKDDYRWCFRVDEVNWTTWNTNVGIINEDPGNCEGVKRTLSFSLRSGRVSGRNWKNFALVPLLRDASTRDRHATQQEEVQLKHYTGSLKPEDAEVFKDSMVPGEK", "assay": "Two-electrode voltage-clamp in Xenopus oocytes, TRPV1 S512F/M547L", "format": "cell-based", "details": "100 nM RTx", "from_the_text": "as §1, with “right). […]” for “right).”"}, "[1]": {"biological_target": "T3, TRPV1 Y511A (dual GFP- and His-tagged) (Rattus norvegicus, UniProt O35433, Y511A)", "T3 construct": "expressed in transfected cells; host or cells: Saccharomyces cerevisiae (intact cells)", "T3 sequence (O35433 whole entry Y511A)": "as the sequence (O35433 whole entry S512F/M547L) above, with Y511A, F512S, L547M counted along it", "assay": "3H-RTx binding to intact S. cerevisiae cells expressing TRPV1 Y511A", "details": "37°C, Figure 1F", "protocol": "(§2) To evaluate whether these constructs were competent to bind vanilloids, we initially measured the binding of [^3H]-RTx ([Szallasi and Blumberg, 1999]; [Szallasi et al., 1999]) to intact yeast cells expressing each of the constructs.\n(§3) S. cerevisiae cells overexpressing TRPV1 constructs to be used in ligand binding assays on intact cells (Figure 1E,F) were grown as for small scale expression trials. 24 hr after protein induction cells were spun down at 4000g, the supernatant was removed and the pellet resuspended in 1x PBS, normalizing OD600 to 75 for each sample, and aliquoted for storage at -80°C. ^3H-RTx binding assays on cells were performed at 37°C as previously described ([Feng et al., 2015]), but where non-specific binding of RTx was measured using cells expressing GFP alone. The binding of RTx to TRPV1 and TRPV2 in membranes (e.g. Figure 2A,B and 5C) was performed at 37°C unless otherwise stated using membranes prepared from large scale protein preparations of S. cerevisiae containing rat TRPV1 and TRPV2 with a 1D4 tag expressed using a constitutive promoter as in [Moiseenkova-Bell et al., 2008]. Data for binding of RTx to membranes was corrected for non-specific binding, determined using either excess non-radioactive ligand or heat inactivation of the protein, as previously described ([Feng et al., 2015]). […]"}, "TRPV2 F472S/L507M": {"biological_target": "T4, TRPV2 F472S/L507M (Rattus norvegicus, UniProt Q9WUD2, F472S/L507M)", "T4 construct": "expressed in transfected cells; host or cells: Xenopus oocytes (cRNA injection)", "T4 sequence (Q9WUD2 whole entry F472S/L507M)": "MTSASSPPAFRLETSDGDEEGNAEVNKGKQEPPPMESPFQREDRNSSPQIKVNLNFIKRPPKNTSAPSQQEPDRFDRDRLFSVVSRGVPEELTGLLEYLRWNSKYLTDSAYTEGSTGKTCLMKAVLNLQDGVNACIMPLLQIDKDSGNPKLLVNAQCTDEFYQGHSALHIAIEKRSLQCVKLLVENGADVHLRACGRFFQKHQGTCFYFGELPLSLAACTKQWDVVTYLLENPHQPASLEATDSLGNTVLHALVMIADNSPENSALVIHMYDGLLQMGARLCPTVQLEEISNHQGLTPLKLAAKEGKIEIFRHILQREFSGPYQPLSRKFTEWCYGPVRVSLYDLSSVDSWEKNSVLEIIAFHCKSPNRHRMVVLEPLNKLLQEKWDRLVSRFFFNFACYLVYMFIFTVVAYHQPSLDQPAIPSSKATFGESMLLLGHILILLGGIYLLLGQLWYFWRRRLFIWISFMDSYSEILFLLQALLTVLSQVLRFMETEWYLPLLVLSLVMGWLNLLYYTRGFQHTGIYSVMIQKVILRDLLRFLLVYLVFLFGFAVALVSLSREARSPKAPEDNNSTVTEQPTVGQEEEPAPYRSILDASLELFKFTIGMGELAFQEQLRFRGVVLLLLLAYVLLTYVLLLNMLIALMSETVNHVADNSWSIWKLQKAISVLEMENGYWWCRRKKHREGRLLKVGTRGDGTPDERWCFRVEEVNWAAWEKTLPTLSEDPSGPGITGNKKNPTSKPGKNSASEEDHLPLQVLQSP", "assay": "Two-electrode voltage-clamp in Xenopus oocytes, TRPV2 F472S/L507M", "format": "cell-based", "details": "100 nM RTx", "from_the_text": "as §1, with “right). […]” for “right).”"}, "WT TRPV2": {"biological_target": "T5, WT TRPV2 (Rattus norvegicus, UniProt Q9WUD2)", "T5 construct": "expressed in transfected cells; host or cells: Xenopus oocytes (cRNA injection, pGEM-HE)", "assay": "Two-electrode voltage-clamp in Xenopus oocytes, WT TRPV2", "format": "cell-based", "details": "100 nM RTx", "from_the_text": "as §1, with “right). […]” for “right).”"}, "[2]": {"biological_target": "T6, TRPV2 triple mutant that retained F472 (Rattus norvegicus, UniProt Q9WUD2, L507M/L510T/Q530E)", "T6 construct": "expressed in transfected cells; host or cells: Xenopus oocytes (cRNA injection)", "T6 sequence (Q9WUD2 whole entry L507M/L510T/Q530E)": "as the sequence (Q9WUD2 whole entry F472S/L507M) above, with S472F, L510T, Q530E counted along it", "assay": "Two-electrode voltage-clamp in Xenopus oocytes, TRPV2 triple mutant retaining F472", "format": "cell-based", "details": "100 nM RTx, +60 mV, normalized to 4 mM 2-APB", "from_the_text": "as §1, with “right). […]” for “right).”"}, "[3]": {"biological_target": "T7, N-terminus His-tagged TRPV1 (without GFP) (Rattus norvegicus, UniProt O35433)", "T7 construct": "expressed in transfected cells; host or cells: Saccharomyces cerevisiae (intact cells)", "assay": "3H-RTx binding to intact S. cerevisiae cells expressing His-tagged TRPV1", "details": "37°C, Figure 1F", "protocol": "as §2, §3"}, "[4]": {"biological_target": "T8, TRPV1 triple mutant that left S512 intact (Rattus norvegicus, UniProt O35433, E570Q/M547L/T550L)", "T8 construct": "expressed in transfected cells; host or cells: Xenopus oocytes (cRNA injection)", "T8 sequence (O35433 whole entry M547L/T550L/E570Q)": "as the sequence (O35433 whole entry S512F/M547L) above, with F512S, T550L, E570Q counted along it", "assay": "Two-electrode voltage-clamp in Xenopus oocytes, TRPV1 triple mutant with S512 intact", "format": "cell-based", "details": "100 nM RTx", "from_the_text": "as §1, with “right). […]” for “right).”"}, "[5]": {"details": "read-out: Kd of 3H-RTx binding (Hill fit)"}}, "data": [{"smiles": "C=C(C)[C@]12C[C@@H](C)[C@@]34O[C@](Cc5ccccc5)(O[C@@H]1[C@@H]3C=C(COC(=O)Cc1ccc(O)c(OC)c1)C[C@]1(O)C(=O)C(C)=C[C@@H]41)O2", "note": "[RTx, resiniferatoxin]", "values": [{"measurement": "channel activation by RTx", "setting": "WT TRPV1", "result": "effectively irreversible activation"}, {"measurement": "channel activation by RTx", "setting": "TRPV1 S512F/M547L", "result": "lost sensitivity"}, {"measurement": "Hill slope (nH)", "setting": "[1]", "result": 1.1}, {"measurement": "Kd", "setting": "[1]; [5]", "result": "> 238", "unit": "nM"}, {"measurement": "channel activation by RTx", "setting": "TRPV2 F472S/L507M", "result": "sensitive to RTx"}, {"measurement": "channel activation by RTx", "setting": "WT TRPV2", "result": "completely insensitive"}, {"measurement": "channel activation by RTx", "setting": "[2]", "result": "insensitive to RTx"}, {"measurement": "Hill slope (nH)", "setting": "[3]", "result": 0.6}, {"measurement": "Kd", "setting": "[3]; [5]", "result": 30, "unit": "nM"}, {"measurement": "channel activation by RTx", "setting": "[4]", "result": "retained sensitivity"}]}]}
